Measured values taken from paper PMC5477784 (MedChemComm, 2017).

How the values were obtained:
[1] = tested on: other PRMTs including PRMT5; settings: cited from earlier work
[2] = target: T1, PRMT1 (Homo sapiens, UniProt Q99873); assay: Radiometric gel assay with [14C]SAM and H4-20, phosphorimaging; format: biochemical; settings: inhibitor 0.2 mM; PRMT1 0.1 μM, [14C]SAM 20 μM, H4-20 100 μM, 30 min, 30°C
[3] = target: T1, PRMT1; assay: Mass spectrometric; format: biochemical; settings: inhibitor 0.2 mM; PRMT1 1 μM, SAM 200 μM, H4-20 50 μM, 30°C, 3.5 h

T1 sequence (Q99873 1-353 isoform Q99873-3, species assumed): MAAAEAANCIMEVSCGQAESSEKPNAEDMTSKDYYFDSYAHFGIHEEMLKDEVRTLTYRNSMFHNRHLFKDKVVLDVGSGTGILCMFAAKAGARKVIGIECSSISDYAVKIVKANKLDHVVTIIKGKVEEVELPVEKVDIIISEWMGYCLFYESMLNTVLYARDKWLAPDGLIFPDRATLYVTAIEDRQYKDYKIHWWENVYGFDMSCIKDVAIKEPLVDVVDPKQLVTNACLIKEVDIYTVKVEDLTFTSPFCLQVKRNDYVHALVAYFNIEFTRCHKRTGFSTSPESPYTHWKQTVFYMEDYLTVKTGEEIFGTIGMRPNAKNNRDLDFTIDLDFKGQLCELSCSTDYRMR

- methylation in radiometric gel assay [2]: methylation was still observed
- methyl transfer reaction H4-20 to dimethyl H4-20 (mass spectrum) [3]: incomplete inhibition
SMILES: N=C(N)c1ccc(-c2ccc(-c3ccc(C(=N)N)cc3)o2)cc1 [Furamidine, furamidine]
- selectivity over the other PRMTs including PRMT5 [1]: > 10 fold
